{"source": "patent US7601745B2", "about": "“Heterocyclic NF-kB inhibitors” (4SC AG, priority 2004, dated 2009)", "data": [{"test_system": "A549-NF-κB-SEAP reporter cells", "assay": "Inhibition of NF-κB-induced inflammation ([…] NINA Instant Assay, SEAP reporter)", "type": "cell-based", "conditions": "NF-κB inflammation assay", "summary_of_the_method": "(§1)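 Reporter cells reactivated 18 h at 37° C, pre-incubated 4.5 h with compound (0.01 up to 100 μM), then stimulated with 2 ng/ml TNF-α for 22 h. SEAP measured by CSPD chemiluminescence (40 min) after endogenous phosphatase inactivation; EC50 fitted from quadruplicates.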", "values": [{"molecule": "NC(=Nc1nc2ccccc2[nH]1)NC(=O)c1csc(NC(=O)c2ccc(C(F)(F)F)c(F)c2)n1", "note": "[compound 56]", "Biological activity (inhibition in the NF-κB inflammation assay)": "+++ (“+++” stands for 90-100% inhibition)"}, {"molecule": "N=C(NC(=O)c1csc(N2CCOCC2)n1)Nc1nc2ccccc2[nH]1", "note": "[compound 91]", "Biological activity (inhibition in the NF-κB inflammation assay)": "+ (“+” stands for 50-80% inhibition)"}, {"molecule": "NC(=Nc1nc2ccccc2[nH]1)NC(=O)c1csc(NC(=O)c2ccc(C(F)(F)F)cc2F)n1", "note": "[compound 53]", "Biological activity (inhibition in the NF-κB inflammation assay)": "+++ (“+++” stands for 90-100% inhibition)"}, {"molecule": "CN1CCN(c2ccc3nc(NC(=O)c4csc(NC(=O)c5ccccc5OC(F)(F)F)n4)sc3c2)CC1", "note": "[compound 42]", "Biological activity (inhibition in the NF-κB inflammation assay)": "+++ (“+++” stands for 90-100% inhibition)"}, {"molecule": "O=C(Nc1nc2ccc([N+](=O)[O-])cc2[nH]1)c1csc(NC(=O)c2ccccc2OC(F)(F)F)n1", "note": "[compound 43]", "Biological activity (inhibition in the NF-κB inflammation assay)": "+++ (“+++” stands for 90-100% inhibition)"}, {"molecule": "N=C(NC(=O)c1csc(NC(=O)c2ccc(C(F)(F)F)cc2)n1)Nc1nc2ccccc2[nH]1", "note": "[compound 51]", "Biological activity (inhibition in the NF-κB inflammation assay)": "+++ (“+++” stands for 90-100% inhibition)"}]}, {"test_system": "A549-NF-κB-SEAP reporter cells", "assay": "Inhibition of NF-κB-induced inflammation ([…] NINA Instant Assay, SEAP reporter)", "type": "cell-based", "conditions": "compounds of formula (I); TNF-α stimulated reporter cells; test concentration not given", "summary_of_the_method": "as §1", "values": [{"molecule": "O=C(O)C1CCCCC1C(=O)N1CCC(c2nc(C(=O)N3CCN(c4cccc(C(F)(F)F)c4)CC3)cs2)CC1", "note": "(stereo not drawn) [compound 189]", "Biological activity (NF-κB inflammation assay, inhibition)": "+ (“+” stands for 50-80% inhibition)"}, {"molecule": "CN(C)c1cccc(C(=O)N2CCC(c3nc(C(=O)N4CCN(c5cccc(C(F)(F)F)c5)CC4)cs3)CC2)c1", "note": "[compound 226]", "Biological activity (NF-κB inflammation assay, inhibition)": "++ (“++” means 80-90%)"}, {"molecule": "N#Cc1ccc(N2CCC(c3nc(C(=O)N4CCN(c5cccc(C(F)(F)F)c5)CC4)cs3)CC2)cc1", "note": "[compound 112]", "Biological activity (NF-κB inflammation assay, inhibition)": "+ (“+” stands for 50-80% inhibition)"}, {"molecule": "O=C(c1csc(C2CCN(C(=O)c3cc(-c4ccc(Cl)cc4)oc3C(F)(F)F)CC2)n1)N1CCN(c2cccc(C(F)(F)F)c2)CC1", "note": "[compound 218]", "Biological activity (NF-κB inflammation assay, inhibition)": "+++ (“+++” stands for 90-100% inhibition)"}, {"molecule": "O=C(c1csc(C2CCN(S(=O)(=O)c3ccc(Cl)cc3)CC2)n1)N1CCN(c2cccc(C(F)(F)F)c2)CC1", "note": "[compound 206]", "Biological activity (NF-κB inflammation assay, inhibition)": "+ (“+” stands for 50-80% inhibition)"}, {"molecule": "COc1cccc(C(=O)N2CCC(c3nc(C(=O)N4CCN(c5cccc(C(F)(F)F)c5)CC4)cs3)CC2)c1", "note": "[compound 209]", "Biological activity (NF-κB inflammation assay, inhibition)": "+ (“+” stands for 50-80% inhibition)"}, {"molecule": "O=C(O)c1cc(Cl)c(Cl)cc1C(=O)N1CCC(c2nc(C(=O)N3CCN(c4cccc(C(F)(F)F)c4)CC3)cs2)CC1", "note": "[compound 187]", "Biological activity (NF-κB inflammation assay, inhibition)": "+ (“+” stands for 50-80% inhibition)"}, {"molecule": "O=C(O)N1CCC(c2nc(C(=O)N3CCN(c4cccc(C(F)(F)F)c4)CC3)cs2)CC1", "note": "[compound 113]", "Biological activity (NF-κB inflammation assay, inhibition)": "+ (“+” stands for 50-80% inhibition)"}, {"molecule": "O=C(c1csc(C2CCN(S(=O)(=O)c3ccc(Cl)cc3Cl)CC2)n1)N1CCN(c2cccc(C(F)(F)F)c2)CC1", "note": "[compound 200]", "Biological activity (NF-κB inflammation assay, inhibition)": "+ (“+” stands for 50-80% inhibition)"}, {"molecule": "O=C(O)c1ccc(C(=O)O)c(C(=O)N2CCC(c3nc(C(=O)N4CCN(c5cccc(C(F)(F)F)c5)CC4)cs3)CC2)c1", "note": "[compound 184]", "Biological activity (NF-κB inflammation assay, inhibition)": "+ (“+” stands for 50-80% inhibition)"}, {"molecule": "O=C(c1csc(C2CCN(C(=O)c3ccccc3OC(F)(F)F)CC2)n1)N1CCN(c2nc3ccccc3n2Cc2ccc(F)cc2)CC1", "note": "[compound 98]", "Biological activity (NF-κB inflammation assay, inhibition)": "+++ (“+++” stands for 90-100% inhibition)"}, {"molecule": "O=C(c1csc(C2CCN(Cc3ccccc3)CC2)n1)N1CCN(c2cccc(C(F)(F)F)c2)CC1", "note": "[compound 177]", "Biological activity (NF-κB inflammation assay, inhibition)": "+ (“+” stands for 50-80% inhibition)"}, {"molecule": "Cc1noc(C)c1S(=O)(=O)N1CCC(c2nc(C(=O)N3CCN(c4cccc(C(F)(F)F)c4)CC3)cs2)CC1", "note": "[compound 192]", "Biological activity (NF-κB inflammation assay, inhibition)": "+ (“+” stands for 50-80% inhibition)"}, {"molecule": "O=C(c1csc(C2CCN(S(=O)(=O)c3ccccc3)CC2)n1)N1CCN(c2cccc(C(F)(F)F)c2)CC1", "note": "[compound 208]", "Biological activity (NF-κB inflammation assay, inhibition)": "+ (“+” stands for 50-80% inhibition)"}, {"molecule": "O=C(c1csc(C2CCN(c3ccccc3)CC2)n1)N1CCN(c2cccc(C(F)(F)F)c2)CC1", "note": "[compound 119]", "Biological activity (NF-κB inflammation assay, inhibition)": "+ (“+” stands for 50-80% inhibition)"}, {"molecule": "O=C(c1csc(C2CCN(Cc3ccc(C(F)(F)F)cc3)CC2)n1)N1CCN(c2cccc(C(F)(F)F)c2)CC1", "note": "[compound 169]", "Biological activity (NF-κB inflammation assay, inhibition)": "+ (“+” stands for 50-80% inhibition)"}, {"molecule": "O=C(c1csc(C2CCN(Cc3c(F)cccc3F)CC2)n1)N1CCN(c2cccc(C(F)(F)F)c2)CC1", "note": "[compound 168]", "Biological activity (NF-κB inflammation assay, inhibition)": "+ (“+” stands for 50-80% inhibition)"}, {"molecule": "O=C(c1csc(C2CCN(S(=O)(=O)c3ccc(F)cc3Cl)CC2)n1)N1CCN(c2cccc(C(F)(F)F)c2)CC1", "note": "[compound 195]", "Biological activity (NF-κB inflammation assay, inhibition)": "+ (“+” stands for 50-80% inhibition)"}, {"molecule": "COc1ccc(N2CCC(c3nc(C(=O)N4CCN(c5cccc(C(F)(F)F)c5)CC4)cs3)CC2)cc1OC", "note": "[compound 159]", "Biological activity (NF-κB inflammation assay, inhibition)": "+ (“+” stands for 50-80% inhibition)"}, {"molecule": "O=C(C=Cc1ccccc1)N1CCC(c2nc(C(=O)N3CCN(c4cccc(C(F)(F)F)c4)CC3)cs2)CC1", "note": "[compound 214]", "Biological activity (NF-κB inflammation assay, inhibition)": "++ (“++” means 80-90%)"}]}, {"test_system": "A549-NF-κB-SEAP reporter cells", "assay": "Inhibition of NF-κB-induced inflammation ([…] NINA Instant Assay, SEAP reporter)", "type": "cell-based", "conditions": "compounds of formula (II); TNF-α stimulated reporter cells; test concentration not given", "summary_of_the_method": "as §1", "values": [{"molecule": "N#Cc1ccc(C(=O)N2CCN(c3nc(C(=O)N4CCN(c5cccc(C(F)(F)F)c5)CC4)cs3)CC2)cc1", "note": "[compound 61]", "Biological activity (NF-κB inflammation assay, inhibition)": "+++ (“+++” stands for 90-100% inhibition)"}, {"molecule": "O=C(c1csc(N2CCN(Cc3ccccc3)CC2)n1)N1CCN(C(c2ccccc2)c2ccccc2)CC1", "note": "[compound 71]", "Biological activity (NF-κB inflammation assay, inhibition)": "+++ (“+++” stands for 90-100% inhibition)"}, {"molecule": "O=C(CCC1CCCC1)Nc1nc(C(=O)N2CCN(c3cccc(C(F)(F)F)c3)CC2)cs1", "note": "[compound 33]", "Biological activity (NF-κB inflammation assay, inhibition)": "+++ (“+++” stands for 90-100% inhibition)"}, {"molecule": "O=C(c1ccc(C(F)(F)F)c(F)c1)N1CCN(c2nc(C(=O)N3CCN(c4cccc(C(F)(F)F)c4)CC3)cs2)CC1", "note": "[compound 60]", "Biological activity (NF-κB inflammation assay, inhibition)": "+++ (“+++” stands for 90-100% inhibition)"}, {"molecule": "O=C(c1csc(N2CCN(Cc3ccccc3)CC2)n1)N1CCN(c2cccc(C(F)(F)F)c2)CC1", "note": "[compound 72]", "Biological activity (NF-κB inflammation assay, inhibition)": "+++ (“+++” stands for 90-100% inhibition)"}, {"molecule": "O=C(c1cc(C(F)(F)F)cc(C(F)(F)F)c1)N1CCN(c2nc(C(=O)N3CCN(c4cccc(C(F)(F)F)c4)CC3)cs2)CC1", "note": "[compound 59]", "Biological activity (NF-κB inflammation assay, inhibition)": "+ (“+” stands for 50-80% inhibition)"}]}, {"test_system": "A549-NF-κB-SEAP reporter cells", "assay": "Inhibition of NF-κB-induced inflammation ([…] NINA Instant Assay, SEAP reporter)", "type": "cell-based", "conditions": "compounds of formula (Ia); TNF-α stimulated reporter cells; test concentration not given", "summary_of_the_method": "as §1", "values": [{"molecule": "O=C(Nc1ccccc1)N1CCC(c2nc(C(=O)N3CCN(c4cccc(C(F)(F)F)c4)CC3)cs2)CC1", "note": "[compound 134]", "Biological activity (NF-κB inflammation assay, inhibition)": "+ (“+” stands for 50-80% inhibition)"}, {"molecule": "O=C(Nc1cccc(F)c1)N1CCC(c2nc(C(=O)N3CCN(c4cccc(C(F)(F)F)c4)CC3)cs2)CC1", "note": "[compound 142]", "Biological activity (NF-κB inflammation assay, inhibition)": "++ (“++” means 80-90%)"}]}, {"test_system": "A549-NF-κB-SEAP reporter cells", "assay": "Inhibition of NF-κB-induced inflammation ([…] NINA Instant Assay, SEAP reporter)", "type": "cell-based", "conditions": "compounds of formula (Ib); TNF-α stimulated reporter cells; test concentration not given", "summary_of_the_method": "as §1", "values": [{"molecule": "Cc1sc(C2CCN(C(=O)c3ccccc3OC(F)(F)F)CC2)nc1CC(=O)N1CCN(c2cccc(C(F)(F)F)c2)CC1", "note": "[compound 103]", "Biological activity (NF-κB inflammation assay, inhibition)": "++ (“++” means 80-90%)"}]}, {"test_system": "A549-NF-κB-SEAP reporter cells", "assay": "Inhibition of NF-κB-induced inflammation ([…] NINA Instant Assay, SEAP reporter)", "type": "cell-based", "conditions": "compounds of formula (Ic); TNF-α stimulated reporter cells; test concentration not given", "summary_of_the_method": "as §1", "values": [{"molecule": "CC1c2cc(O)c(O)cc2CCN1C(=O)c1csc(C2CCN(C(=O)Cc3ccc(F)cc3)CC2)n1", "note": "(stereo not drawn) [compound 233]", "Biological activity (NF-κB inflammation assay, inhibition)": "+ (“+” stands for 50-80% inhibition)"}, {"molecule": "COc1cc2c(cc1OC)C(C)N(C(=O)c1csc(C3CCN(C(=O)Cc4ccc(F)cc4)CC3)n1)CC2", "note": "(stereo not drawn) [compound 234]", "Biological activity (NF-κB inflammation assay, inhibition)": "+ (“+” stands for 50-80% inhibition)"}, {"molecule": "O=C(Cc1ccc(F)cc1)N1CCC(c2nc(C(=O)N3CCc4ccccc4C3)cs2)CC1", "note": "[compound 163]", "Biological activity (NF-κB inflammation assay, inhibition)": "+ (“+” stands for 50-80% inhibition)"}, {"molecule": "COc1cc2c(cc1OC)CN(C(=O)c1csc(C3CCN(C(=O)Cc4ccc(F)cc4)CC3)n1)C(C)C2", "note": "(stereo not drawn) [compound 232]", "Biological activity (NF-κB inflammation assay, inhibition)": "+ (“+” stands for 50-80% inhibition)"}]}]}
